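Method: 48-hour compound exposure of cells in 96-well plates, five concentrations, linear interpolation of endpoints. At the GI50, growth is halved. TGI marks complete inhibition of growth.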
What was measured:
Experiment in all cases: DTP human tumour cell line panel, 48 h
[1] = tested on: UO-31 renal
[2] = tested on: 786-0 renal
[3] = tested on: LOX IMVI melanoma
[4] = tested on: MOLT-4 leukemia
[5] = tested on: NCI-H23 lung
[6] = tested on: U251 CNS
[7] = tested on: A498 renal
[8] = tested on: SF-268 CNS
[9] = tested on: SW-620 colon
[10] = tested on: T-47D breast
[11] = tested on: HS 578T breast
[12] = tested on: NCI-H226 lung
[13] = tested on: MALME-3M melanoma
[14] = tested on: HCT-15 colon
[15] = tested on: OVCAR-8 ovarian
[16] = tested on: SF-539 CNS
[17] = tested on: HOP-92 NSCLC
[18] = tested on: COLO 205 colon
[19] = tested on: HT29 colon
[20] = tested on: A549 NSCLC
[21] = tested on: CAKI-1 renal
[22] = tested on: M14 melanoma
[23] = tested on: HCC-2998 colon
[24] = tested on: RPMI-8226 leukemia
[25] = tested on: TK-10 renal
[26] = tested on: SN12C renal
[27] = tested on: CCRF-CEM leukemia
[28] = tested on: SNB-75 CNS
[29] = tested on: SNB-19 CNS

CC(C)C[C@H](NC(=O)Cn1ccc(NCc2ccccc2)cc1=O)B(O)O
GI50 [1]: 1.21 µM
TGI [1]: 10.6 µM
GI50 [2]: 2.02 µM
TGI [2]: > 40.1 µM
GI50 [3]: 0.606 µM
TGI [3]: 2.31 µM
GI50 [4]: 0.319 µM
GI50 [5]: 5.01 µM
TGI [5]: > 100 µM
GI50 [6]: 6.3 µM
TGI [6]: > 100 µM
GI50 [7]: 0.234 µM
TGI [7]: 1.59 µM
GI50 [8]: 3.57 µM
TGI [8]: 27.5 µM
GI50 [9]: 0.557 µM
TGI [9]: > 28.6 µM
GI50 [10]: 0.785 µM
TGI [10]: 12.4 µM
GI50 [11]: 3.33 µM
TGI [11]: 85.3 µM
GI50 [12]: 1.19 µM
TGI [12]: 5.84 µM
GI50 [13]: 2.22 µM
TGI [13]: > 30 µM
GI50 [14]: 2.62 µM
TGI [14]: > 41.6 µM
GI50 [15]: 4.69 µM
TGI [15]: > 100 µM
GI50 [16]: 0.296 µM
TGI [16]: 1.13 µM
GI50 [17]: 2.39 µM
TGI [17]: 8.35 µM
GI50 [18]: 2.48 µM
TGI [18]: > 100 µM
GI50 [19]: 0.814 µM
TGI [19]: 8.41 µM
GI50 [20]: 5.15 µM
TGI [20]: > 100 µM
GI50 [21]: 0.499 µM
TGI [21]: 12.8 µM
GI50 [22]: 1.35 µM
TGI [22]: 7.08 µM
GI50 [23]: 2.21 µM
TGI [23]: 5.73 µM
GI50 [24]: 0.304 µM
GI50 [25]: 0.472 µM
TGI [25]: 5.23 µM
GI50 [26]: 3.71 µM
TGI [26]: 54.8 µM
GI50 [27]: 0.511 µM
TGI [27]: > 100 µM
GI50 [28]: 2.33 µM
TGI [28]: 9.72 µM
GI50 [29]: 4.96 µM
TGI [29]: > 100 µM

From PubChem BioAssay (NCI)
